Series [1] addresses T1, hα7-wt nAChR (Homo sapiens, UniProt P36544).
T1 construct: expressed in transfected cells
As to the kind of experiment: Ca2+ flux imaging (FDSS) (Protocol B), potentiation of the choline response. Particulars: Ca2+ assay as described in D.1; for EC50: "<5" = activity did not reach a top plateau at maximal concentration; for Emax: read-out: % Efficacy. The class given is cell-based. In outline: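 Cells expressing hα7-wt nAChR, loaded with fluo-4AM (2 μM final) in HBSS with 10 mM HEPES, 5 mM CaCl2, 0.1% BSA and probenecid; compound (0.01–30 μM) added up to 10 min before 100 μM choline. Peak fluorescence potentiation relative to choline alone (100%); EC50 from sigmoidal curve.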

The target in series [2] is T2, hα7-wt nAChR-expressing GH4C1 cells (Homo sapiens, UniProt P36544).
T2 construct: expressed in transfected cells
Put plainly: Patch-clamp current recording (whole-cell voltage clamp), potentiation of the choline current and PAM type. The series is classed as cell-based. Further details: key: Type 0 compounds minimally enhance the effect size of the current elicited by 1 mM choline.; Type 1 compounds enhance the effect size of the current elicited by 1 mM choline but minimally alter the kinetics of the receptor.; Type 2 compounds enhance the effect size of the current elicited by 1 mM choline while reducing the rate and/or the extent of desensitization.; Type 3 compounds enhance the effect size of the current elicited by 1 mM choline. When tested at higher concentrations up to 10 μM they completely inhibit desensitization, in particular a 1 mM choline application of 250 milliseconds.; Type 4 compounds allow for an initial desensitization of the receptor followed by a re-opening of the receptor during agonist application. The following applies: 1 mM choline. The procedure: The compounds of the present invention are classified as type 1-4, based on qualitative kinetic properties, as determined by whole-cell voltage-clamp recordings. This classification is based on the effect of an α7 PAM compound, as described hereinbefore, on the signal elicited by an agonist application. In particular, said agonist is choline at a concentration of 1 mM. In a preferred experimental setting, said α7 PAM compound and choline are simultaneously applied to the cell, as described hereinafter. Desensitization is defined as the closure of the receptor upon activation during the application of the agonist in whole-cell voltage-clamp electrophysiology measurements seen as the reduction of the […] current after initial activation by the agonist.
The definition of the PAM types 1-4 is described hereinafter: • Type 0 compounds minimally enhance the effect size of the current elicited by 1 mM choline. • Type 1 compounds enhance the effect size of the current elicited by 1 mM choline but minimally alter the kinetics of the receptor. In particular, the rate and the extent of desensitization, elicited by the agonist, is not affected. The compound-modulated response to 1 mM choline, therefore, is a close to linear scaling of the 1 mM choline response in absence of the α7 PAM compound. • Type 2 compounds enhance the effect size of the current elicited by 1 mM choline while reducing the rate and/or the extent of desensitization. • Type 3 compounds enhance the effect size of the current elicited by 1 mM choline. […] At low-potency concentrations of the α7 PAM compound, the agonist-induced activation, which is followed by desensitization, can still be separated from the compound-induced re-opening as an initial inward current-maximum. At higher potency concentrations of the α7 PAM compound, the re-opening occurs faster than the closure due to desensitization so that the initial current-maximum disappears.
A compound was considered to have interesting PAM-like activity when the potentiation of the peak current was at least 200% compared to the control choline response (=100%). Such compounds are classified as belonging to a particular PAM type in the Experimental Part. Compounds not meeting the condition are not classified as belonging to a particular PAM-type.
The compounds also have a potentiating effect on the response to choline when measured by whole-cell patch clamp electrophysiology in GH4C1 cells stably over-expressing the human wild-type α7 receptor.
Patch-Clamp Current Recording
Patch-clamp recording from mammalian cells has provided a powerful means of assessing the function of membrane-bound proteins thought to be subunits of ligand-gated ion channels. Activation of such proteins by endogenous or exogenous ligands cause opening of a pore associated with the receptor through which ions flow down their electrochemical gradient. In the case of the hα7-wt nAChR-expressing GH4C1 recombinant cell line the preferential permeability to calcium of this receptor means that calcium flows into the cell upon activation by ACh, choline and other nicotinic ligands giving rise to a calcium current. Since this receptor rapidly desensitizes in the presence of agonist it is important an application system is used which is capable of very rapid switching of solutions (<100 ms) to prevent partial or full desensitisation of receptor responses coincident with the time of agonist application. Consequently, a second convenient technique to assess the enhancement of nicotinic efficacy is patch-clamp recording from hα7-wt nAChR-expressing GH4C1 cells coupled with a rapid-application system.
• The external recording solution consisted of 152 mM NaCl, 5 mM KCl, 1 mM MgCl2, 1 mM Calcium, 10 mM HEPES; pH 7.3. […]

As usually defined, the EC50 is the midpoint of the concentration-response curve. What is called melting point is the temperature, or range, at which the solid turns liquid.

T2 sequence (P36544 23-502): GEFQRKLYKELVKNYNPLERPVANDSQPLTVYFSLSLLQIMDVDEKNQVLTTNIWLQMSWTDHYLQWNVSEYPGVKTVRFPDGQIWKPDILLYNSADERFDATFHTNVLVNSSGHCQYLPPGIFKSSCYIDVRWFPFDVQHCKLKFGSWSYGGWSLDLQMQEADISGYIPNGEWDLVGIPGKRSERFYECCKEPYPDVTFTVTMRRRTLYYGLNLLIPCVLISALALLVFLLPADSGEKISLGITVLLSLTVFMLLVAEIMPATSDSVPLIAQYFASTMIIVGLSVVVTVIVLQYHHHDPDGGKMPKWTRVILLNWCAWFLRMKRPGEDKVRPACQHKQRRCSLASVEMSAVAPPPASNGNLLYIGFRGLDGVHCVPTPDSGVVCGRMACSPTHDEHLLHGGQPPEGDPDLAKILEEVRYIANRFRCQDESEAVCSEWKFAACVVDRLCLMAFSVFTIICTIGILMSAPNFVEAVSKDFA
T1 sequence (P36544 23-502): as above

Consider `CN(C)C(=O)CCn1nc(Nc2ccc(F)cc2)cc1-c1ccc2c(c1)OCCO2` [compound 83], for which the melting point was 141.6 to 143.2 °C. For the same molecule, the EC50 in series [1] was 0.117 µM.
As for `CNC(=O)Cn1nc(Nc2cccc(F)c2)cc1-c1ccc2c(c1)OCCO2` [compound 72], the melting point lay in the range of 189.5 to 194 °C. Further, the EC50 in series [1] is 0.646 µM. Moreover, the PAM type in series [2] is recorded as 2.
Regarding `Cc1cc(-c2cc(Nc3ccc4c(c3)OC(F)(F)O4)nn2CC(=O)NCC2CC2)ccn1` [compound 95], in series [1], the EC50 was 0.234 µM. Moreover, the PAM type in series [2] was 2.
In the same order, the values of `CCNC(=O)Cn1nc(Nc2ccc3c(c2)OC(F)(F)O3)cc1-c1ccncc1` [compound 87] are 0.871 µM and 3.
`CC[C@H](O)Cn1nc(Nc2ccc(F)c(F)c2)cc1-c1ccnc(C)c1` [compound 45]: in series [1], the EC50 was 1.23 µM and the Emax was found to be 800%. Also, the PAM type in series [2] was 1.
`CC[C@H](O)Cn1nc(Nc2ccc(F)c(F)c2F)cc1-c1ccnc(COC)c1` [compound 121]: the EC50 in series [1] is 1.07 µM. Besides, in series [2], the PAM type is given as 2.
In the same order, the values of `CC[C@H](O)Cn1nc(Nc2ccc(F)c(F)c2)cc1-c1ccnc(COC)c1` [compound 6, (alphaS)-3-[(3,4-difluorophenyl)amino]-alpha-ethyl-5-[2-(methoxymethyl)-4-pyridinyl]-1H-pyrazole-1-ethanol] are 1.15 µM and 2.
In the same order, the values of `Cc1cc(-c2cc(Nc3cccc(Cl)c3)nn2CCC(=O)N(C)C)cc(C)n1` [compound 56] are 0.525 µM and 2.
The like results for `COc1cccc(-c2cc(Nc3ccc(F)c(F)c3)nn2CCC(=O)N(C)C)c1` [compound 103] were, in that order, 0.245 µM and 2.
Regarding `Cc1cc(-c2cc(Nc3ccc(F)c(F)c3)nn2CCC(=O)N(C)C)ccn1` [compound 40], the EC50 in series [1] was 1 µM. Moreover, in series [2], the PAM type came to 2.
As for `CCNC(=O)Cn1nc(Nc2ccc(F)c(F)c2)cc1-c1cc(C)nc(C)c1` [compound 151], in series [1], the EC50 is 0.55 µM and the Emax is 749%. Also, in series [2], the PAM type is 2.
As to `Cc1ccnc(-c2cc(Nc3ccc(F)c(C(F)(F)F)c3)nn2CCC(=O)N(C)C)c1` [compound 23], in series [1], the EC50 is 0.631 µM. Also, the PAM type in series [2] is reported as 2.
The like results for `Cc1cc(-c2cc(Nc3ccc4c(c3)OC(F)(F)O4)nn2CCC(=O)N(C)C)ccn1` [compound 94] were, in that order, 0.24 µM and 2.
Regarding `CNC(=O)Cn1nc(Nc2ccc(F)cc2)cc1-c1ccc2c(c1)OCCO2` [compound 73], the melting point was in the range of 169.9 to 177.3 °C. The EC50 in series [1] was 0.437 µM. For the same molecule, the PAM type in series [2] is 3.
As for `CCNC(=O)Cn1nc(Nc2ccc(F)c(F)c2F)cc1-c1ccnc(C)c1` [compound 125], in series [1], the EC50 is 0.933 µM and the Emax amounted to 972%. Further, in series [2], the PAM type came out at 2.
In the same order, the values of `CCNC(=O)Cn1nc(Nc2ccc(F)c(C(F)(F)F)c2)cc1-c1cc(C)nc(C)c1` [compound 152] are 0.468 µM, 856% and 2.
As to `COc1ccc(-c2cc(Nc3ccc(F)c(F)c3)nn2CCC(=O)N(C)C)cc1` [compound 102], the concentration giving a half-maximal response (EC50) in series [1] was 0.0776 µM. Moreover, the PAM type in series [2] worked out at 4.
As for `Cc1cc(-c2cc(Nc3ccc(F)c(F)c3F)nn2CCC(=O)N(C)C)ccn1` [compound 166], in series [1], the EC50 is 0.295 µM and the Emax was 856%. Further, the PAM type in series [2] is recorded as 2.
For the molecule `CCNC(=O)Cn1nc(Nc2cc(OC)cc(C(F)(F)F)c2)cc1-c1cc(C)nc(C)c1` [compound 140], in series [1], the EC50 is 1 µM. Also, the PAM type in series [2] was determined as 2.
The molecule `CNC(=O)Cn1nc(Nc2ccc3c(c2)OC(F)(F)O3)cc1-c1ccc2c(c1)OCCO2` [compound 97] showed a melting point of 171.5 to 171.8 °C. Further, the EC50 in series [1] was 1.12 µM.
For `CNC(=O)Cn1nc(Nc2ccc3c(c2)OC(F)(F)O3)cc1-c1ccncc1` [compound 86], the EC50 in series [1] was 2.29 µM. The PAM type in series [2] turned out to be 3.
As for `CCNc1cc(-c2cc(Nc3ccc(F)c(F)c3)nn2C[C@@H](O)CC)ccn1` [compound 65], in series [1], the EC50 was 0.575 µM and the Emax amounted to 1000%. In series [2], the PAM type amounted to 2.
In the same order, the values of `CC[C@H](O)Cn1nc(Nc2cc(OC)cc(C(F)(F)F)c2)cc1-c1ccnc(C)c1C` [compound 53] are 1.07 µM, 482% and 0.
For `Cc1cc(-c2cc(Nc3cccc(Cl)c3)nn2CC(=O)NC2CC2)ccn1` [compound 123], the EC50 in series [1] is 1 µM. Also, in series [2], the PAM type is 2.
Turning to `Cc1cc(-c2cc(Nc3ccc(F)c(F)c3)nn2CC(=O)NCC2CC2)cc(C)n1` [compound 57], the EC50 in series [1] was 0.209 µM. Also, in series [2], the PAM type is 2.
The like results for `CC[C@H](O)Cn1nc(Nc2cccc(Cl)c2)cc1-c1ccnc(C)c1` [compound 185, (alphaS)-3-[(3-chlorophenyl)amino]-alpha-ethyl-5-[2-methyl-4-pyridinyl]-1H-pyrazole-1-ethanol] were, in that order, 1.58 µM and 1.
Regarding `C[C@H](O)Cn1nc(Nc2cc(F)c(F)c(F)c2)cc1-c1ccc2c(c1)OCCO2` [compound 85], in series [1], the EC50 was 1.1 µM and the Emax came to 400%. In addition, in series [2], the PAM type is 0.
With `CCNC(=O)Cn1nc(Nc2ccc3c(c2)OC(F)(F)O3)cc1-c1ccnc(C)c1` [compound 93], the EC50 in series [1] was 1 µM. The PAM type in series [2] amounted to 2.
In the same order, the values of `Cc1cc(-c2cc(Nc3cccc(Cl)c3)nn2CC(=O)NCC2CC2)cc(C)n1` [compound 100] are 0.339 µM and 2.
The like results for `CC[C@H](O)Cn1nc(Nc2ccc(F)c(F)c2)cc1-c1cc(C)nc(C)c1` [compound 59] were, in that order, 0.617 µM and 1.
In the case of `CNC(=O)Cn1nc(Nc2ccc(F)c(F)c2)cc1-c1ccc2c(c1)OCCO2` [compound 7, 3-[(3,4-difluorophenyl)amino]-5-(2,3-dihydro-1,4-benzodioxin-6-yl)-N-methyl-1H-pyrazole-1-acetamide], the melting point was 189.5 to 194.5 °C. Further, in series [1], the EC50 was 0.195 µM. For the same molecule, the PAM type in series [2] was 2.

The values above are taken from patent US8779158B2, “Trisubstituted pyrazoles as acetylcholine receptor modulators” (Janssen Pharmaceutica NV, priority 2008, dated 2014).
